In patent US20080161366A1, “AMINOALKYL SUBSTITUTED ARYL SULFAMIDE DERIVATIVES AND METHODS OF THEIR USE” (Wyeth, priority 2006, published 2008):
Structures can show the parent of a compound that is named as a salt.

The compounds below were run against human norepinephrine transporter (hNET) (Homo sapiens, UniProt P23975) (assay: hNET uptake, Protocol B: cell based norepinephrine reuptake assay using recombinant hNET (MDCK-Net6 cells)). Settings: MDCK-Net6, read-out: NE uptake (Protocol B) % inhibition @ 6 uM.
human norepinephrine transporter (hNET), sequence (P23975 whole entry): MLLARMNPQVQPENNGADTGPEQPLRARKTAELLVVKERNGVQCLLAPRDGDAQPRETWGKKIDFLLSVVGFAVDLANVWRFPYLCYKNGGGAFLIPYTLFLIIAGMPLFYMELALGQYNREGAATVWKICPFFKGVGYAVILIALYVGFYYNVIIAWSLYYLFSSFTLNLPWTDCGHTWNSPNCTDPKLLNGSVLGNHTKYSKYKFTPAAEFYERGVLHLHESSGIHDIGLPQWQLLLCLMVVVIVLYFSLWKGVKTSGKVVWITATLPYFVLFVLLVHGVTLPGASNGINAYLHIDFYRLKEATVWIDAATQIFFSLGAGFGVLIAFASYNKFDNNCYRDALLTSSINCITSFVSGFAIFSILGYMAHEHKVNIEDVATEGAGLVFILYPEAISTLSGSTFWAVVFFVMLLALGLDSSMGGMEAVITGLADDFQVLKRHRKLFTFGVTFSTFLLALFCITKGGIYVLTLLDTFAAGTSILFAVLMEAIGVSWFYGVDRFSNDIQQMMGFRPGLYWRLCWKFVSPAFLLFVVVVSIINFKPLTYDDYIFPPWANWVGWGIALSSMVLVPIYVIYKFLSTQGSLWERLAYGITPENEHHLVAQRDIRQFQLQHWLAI

SMILES	inhibition at 6 µM [%]
CN(C)CCCCCN1c2ccccc2N(c2ccc(F)cc2Cl)S1(=O)=O [Example 90, 5-[3-(2-chloro-4-fluorophenyl)-2,2-dioxido-2,1,3-benzothiadiazol-1(3H)-yl]-N,N-dimethylpentan-1-amine hydrochloride]	49

Same assay, conditions: NE uptake (Protocol B) IC50 (nM), MDCK-Net6 cells, 3H-NE 16 nM

SMILES	IC50 [nM]
CNCCCN1c2ccccc2N(c2cnccc2C)S1(=O)=O [Example 33, N-methyl-3-[3-(4-methylpyridin-3-yl)-2,2-dioxido-2,1,3-benzothiadiazol-1(3H)-yl]propan-1-amine hydrochloride]	282
CNCCCN1c2ccccc2N(c2ccc(Cl)cc2)S1(=O)=O [Example 1, 3-[3-(4-chlorophenyl)-2,2-dioxido-2,1,3-benzothiadiazol-1(3H)-yl]-N-methylpropan-1-amine]	20.5
CCNCCCCN1c2ccccc2N(c2ccc(C)cc2F)S1(=O)=O [Example 107, N-ethyl-4-[3-(2-fluoro-4-methylphenyl)-2,2-dioxido-2,1,3-benzothiadiazol-1(3H)-yl]butan-1-amine]	582
O=S1(=O)N(CCCNCCO)c2ccccc2N1c1ccccc1F [Example 135, 2-({3-[3-(2-fluorophenyl)-2,2-dioxido-2,1,3-benzothiadiazol-1(3H)-yl]propyl}amino)ethanol]	43
CNCCCN1c2ccccc2N(c2cccc(C)c2)S1(=O)=O [Example 15, N-methyl-3-[3-(3-methylphenyl)-2,2-dioxido-2,1,3-benzothiadiazol-1(3H)-yl]propan-1-amine]	96.2
O=S1(=O)N(CCNC2CCNCC2)c2ccccc2N1c1ccccc1 [Example 134, N-[2-(2,2-dioxido-3-phenyl-2,1,3-benzothiadiazol-1(3H)-yl)ethyl]piperidin-4-amine dihydrochloride]	67
NCCCN1c2ccccc2N(c2ccc(F)cc2Cl)S1(=O)=O [Example 61, 3-[3-(2-Chloro-4-fluorophenyl)-2,2-dioxido-2,1,3-benzothiadiazol-1(3H)-yl]propan-1-amine hydrochloride]	113
CNCCCCN1c2ccccc2N(c2ccc(F)cc2)S1(=O)=O [Example 82, 4-[3-(4-Fluorophenyl)-2,2-dioxido-2,1,3-benzothiadiazol-1(3H)-yl]-N-methylbutan-1-amine hydrochloride]	46
CNCCCN1c2ccccc2N(c2ccc(OC)nc2)S1(=O)=O [Example 28, 3-[3-(6-methoxypyridin-3-yl)-2,2-dioxido-2,1,3-benzothiadiazol-1(3H)-yl]-N-methylpropan-1-amine hydrochloride]	1900
O=S1(=O)N(CCCNC2CCCC2)c2ccccc2N1c1c(F)cccc1F [Example 129, N-{3-[3-(2,6-difluorophenyl)-2,2-dioxido-2,1,3-benzothiadiazol-1(3H)-yl]propyl}cyclopentanamine hydrochloride]	195
CCNCCCN1c2ccccc2N(c2ccccc2F)S1(=O)=O [Example 57, N-ethyl-3-[3-(2-fluorophenyl)-2,2-dioxido-2,1,3-benzothiadiazol-1(3H)-yl]propan-1-amine]	2.56
CN(C)CCCCCCN1c2ccccc2N(c2ccccc2F)S1(=O)=O [Example 103, 6-[3-(2-fluorophenyl)-2,2-dioxido-2,1,3-benzothiadiazol-1(3H)-yl]-N,N-dimethylhexan-1-amine]	1200
O=S1(=O)N(CCCNC2CC2)c2ccccc2N1c1ccccc1 [Example 96, N-[3-(2,2-dioxido-3-phenyl-2,1,3-benzothiadiazol-1(3H)-yl)propyl]cyclopropanamine]	113
CNCCCN1c2ccccc2N(c2cccc(F)c2F)S1(=O)=O [Example 46, 3-[3-(2,3-difluorophenyl)-2,2-dioxido-2,1,3-benzothiadiazol-1(3H)-yl]-N-methylpropan-1-amine hydrochloride]	4.84
CNCCCN1c2ccccc2N(c2ccccc2)S1(=O)=O [Example 5, 3-(2,2-dioxido-3-phenyl-2,1,3-benzothiadiazol-1(3H)-yl)-N-methylpropan-1-amine]	2.63
CNCCCN1c2cnccc2N(c2ccccc2)S1(=O)=O [Example 25, 3-(2,2-dioxido-1-phenyl[1,2,5]thiadiazolo[3,4-c]pyridin-3(1H)-yl)-N-methylpropan-1-amine]	146
CNCCCN1c2cccnc2N(c2ccccc2)S1(=O)=O [Example 24, 3-(2,2-dioxido-3-phenyl[1,2,5]thiadiazolo[3,4-b]pyridin-1(3H)-yl)-N-methylpropan-1-amine]	60.9
CNCCCN1c2cc(Br)ccc2N(c2ccccc2)S1(=O)=O [Example 37, 3-(6-bromo-2,2-dioxido-3-phenyl-2,1,3-benzothiadiazol-1(3H)-yl)-N-methylpropan-1-amine]	2360
CNCCCN1c2ccccc2N(c2ccccc2Cl)S1(=O)=O [Example 52, 3-[3-(2-chlorophenyl)-2,2-dioxido-2,1,3-benzothiadiazol-1(3H)-yl]-N-methylpropan-1-amine hydrochloride]	2.74
CNCCCN1c2cc(C#N)ccc2N(c2ccccc2)S1(=O)=O [Example 43, 3-[3-(methylamino)propyl]-1-phenyl-1,3-dihydro-2,1,3-benzothiadiazole-5-carbonitrile 2,2-dioxide]	1320
O=S1(=O)N(CCCNC2CC2)c2ccccc2N1c1c(F)cccc1F [Example 84, N-{3-[3-(2,6-Difluorophenyl)-2,2-dioxido-2,1,3-benzothiadiazol-1(3H)-yl]propyl}cyclopropanamine hydrochloride]	21
CNCCCN1c2ccccc2N(c2ccc3ccccc3c2)S1(=O)=O [Example 14, N-methyl-3-[3-(2-naphthyl)-2,2-dioxido-2,1,3-benzothiadiazol-1(3H)-yl]propan-1-amine]	2620
CNCCCN1c2ccccc2N(c2cc(F)cc(F)c2)S1(=O)=O [Example 47, 3-[3-(3,5-difluorophenyl)-2,2-dioxido-2,1,3-benzothiadiazol-1(3H)-yl]-N-methylpropan-1-amine hydrochloride]	2.73
CNCCCN1c2cccc(F)c2N(c2ccccc2)S1(=O)=O [Example 41, 3-(4-fluoro-2,2-dioxido-3-phenyl-2,1,3-benzothiadiazol-1(3H)-yl)-N-methylpropan-1-amine]	2.41
CNCCCN1c2ccccc2N(c2ccc(F)c(F)c2F)S1(=O)=O [Example 113, 3-[2,2-dioxido-3-(2,3,4-trifluorophenyl)-2,1,3-benzothiadiazol-1(3H)-yl]-N-methylpropan-1-amine]	109
CNCCCCCN1c2ccccc2N(c2ccc(F)cc2F)S1(=O)=O [Example 115, 5-[3-(2,4-difluorophenyl)-2,2-dioxido-2,1,3-benzothiadiazol-1(3H)-yl]-N-methylpentan-1-amine hydrochloride]	61
CNCCCCN1c2ccccc2N(c2ccc(F)cc2Cl)S1(=O)=O [Example 87, 4-[3-(2-chloro-4-fluorophenyl)-2,2-dioxido-2,1,3-benzothiadiazol-1(3H)-yl]-N-methylbutan-1-amine hydrochloride]	82
O=S1(=O)N(CCNC2CCNCC2)c2ccccc2N1c1ccccc1F [Example 133, N-{3-[3-(2-fluorophenyl)-2,2-dioxido-2,1,3-benzothiadiazol-1(3H)-yl]ethyl}piperidin-4-amine dihydrochloride]	45
